Laboratory results taken from US20120301468A1, “ANTI-MN ANTIBODIES AND METHODS OF USING SAME” (BAYER HEALTHCARE LLC, priority 2005, published 2012).

What was measured:
[1] = system: MN-expressing MaTu cells; test: FACS cell binding, MaTu cells; format: cell-based, human
[2] = system: Colo-205 CRC xenograft; test: Colo-205 subcutaneous xenograft model
Text: The in vivo anti-tumor effect of 3ee9/MMAE was examined in 6 different human xenograft tumor models. These models were established through subcutaneous implantation of human tumor cells into female athymic NCr (nu/nu) mice (Taconic, N.Y.). The human tumor xenograft models evaluated included the MaTu human mammary carcinoma model, the HT-29 and Colo-205 human colo-rectal carcinoma (CRC) models, PC3MM2 prostate carcinoma model, the HCT-15 multi-drug resistant (P-gp) CRC model, and the MiaPaCa2 human pancreatic model. PBS was used as a vehicle, and dosing solutions were prepared fresh daily. The dosing volume was 0.1 mL/10 g (10 mL/kg).
The length and width of each tumor were measured using an electronic caliper 2-3 times per week, and tumor weights (mg) were calculated based on the formula of [length (mm)×width (mm)^2]/2. All data, including daily observations, obtained throughout the course of the study were documented in Anti-tumor Data Acquisition System (ADAS). […] Tumor growth inhibition (TGI) was calculated as (1-T/C)×100, where T=final tumor weights from a treated group after the last dose, and C=final tumor weights from the control group after the last dose. In addition, anti-tumor efficacy was measured as the incidence of responses (or responders or regressions) defined as tumors with ≦50% of their initial size. A minimum duration of 7 days is required for a response to be considered durable.
The anti-tumor activity of 3ee9/MMAE was next evaluated against human prostate (PC-3 mm2) and CRC (Colo-205) tumor xenografts. Female NCr nu/nu mice were implanted subcutaneously (s.c.) either with 5×10^6 PC3 mm2 or Colo-205 cells. Treatment was initiated when tumors were of an average size of approximately 125-150 mg. The general health of mice was monitored and recorded daily. Tumor dimensions and body weights were recorded twice a week starting with the first day of treatment.
In the PC3 mm2 and Colo-205 studies, 3ee9/MMAE was administered intravenously (i.v.) once every 4th day for a total of 3 injections (Q4Dx3) at doses of 1, 3, 10 and 30 mg/kg and 1.25, 2.5, 5 and 10 mg/kg, respectively.
The feasibility of using 3ee9/MMAE in conjunction with other cancer chemotherapeutic agents was investigated. Xeloda® is used as first line treatment of patients with metastatic colorectal carcinoma. The activity and tolerability of combined therapy using 3ee9/MMAE and Xeloda® was evaluated. 3ee9/MMAE was administered i.v. on a Q4Dx3 schedule and at dose levels of 1.25, 2.5 and 10 mg/kg. Xeloda® was administered orally once daily for 9 days at dose levels of 250 and 500 mg/kg.

[3] = system: low MN-expressing MIAPaCa2 pancreatic xenograft; test: MIAPaCa2 xenograft model; format: in vivo, mice
Protocol: To better understand the relationship between MN expression and antitumor efficacy, xenograft efficacy studies were conducted using a low MN-expressing pancreatic model, MIAPaCa2 and high MN-expressing huMN-MIAPaCa2 model. This latter line was derived by engineering the MIAPaCa2 line to stably express MN. […] 3ee9/MMAE dosed at 10 mg/kg only produced 50% TGI.

[4] = system: tubulin in HT-29 tumors; test: In vivo mechanism of action, immunohistochemistry of HT-29 tumors; parameters: species or system athymic mice
Protocol: To explore the in vivo mechanism of action of 3ee9/MMAE, tumors were implanted subcutaneously at right flank of the mice with 5×10^6 HT-29 cells. Eight days later, athymic mice bearing HT-29 tumors were treated with vehicle or with 3ee9/MMAE at 1.25 and 5 mg/kg (Q1Dx1). Tumors were collected and fixed in formalin 4 hours and 1, 3 and 5 hours following administration of 3ee9/MMAE. Samples were then embedded in paraffin, sectioned at 5 μm, de-paraffinized, and stained using standard protocol for fluorescent immunohistochemistry of human tissues using mouse antibodies: Anti-α/β-tubulin, Anti-phospho-Histone H3, and DNA. The slides were then observed under a fluorescent microscope, and representative images were taken through three separate color channels.
3ee9/MMAE had little effect in affecting cell mechanism in the 4 hr samples. […] In addition, decreased level of tubulin staining could be observed. These effects were then highly amplified in the day 3 and day 5 samples.

[5] = system: MN-negative MIAPaca2 cells; test: In vitro cytotoxicity, MIAPaca2
[6] = Colo-205, 1.25 mg/kg/inj Q4D × 3 IV
[7] = Colo-205, 2.5 mg/kg/inj Q4D × 3 IV
[8] = Colo-205, 10 mg/kg/inj Q4D × 3 IV

3ee9/MMAE: human anti-MN IgG1 antibody 3ee9 conjugated to Monomethylauristatin E (MMAE)
cell binding by FACS [1]: bind to MN-expressing MaTu cells | % Inhibition (T/C) (d 17) [2, 6]: 30.6% | % Regressions [2, 6]: 0% | % Weight Loss (d 17) [2, 6]: 0.5% | TGI ([2]; Colo-205, 2.5 mg/kg i.v. Q4Dx3, end of dosing): > 70% | % Inhibition (T/C) (d 17) [2, 7]: 73% | % Regressions [2, 7]: 0% | % Weight Loss (d 17) [2, 7]: 0.1% | responses (regressions) ([2]; Colo-205, 5 mg/kg Q4Dx3): 40% | responses (regressions) ([2]; Colo-205, 10 mg/kg Q4Dx3): 80% | % Inhibition (T/C) (d 17) [2, 8]: 96.2% | % Regressions [2, 8]: 80% | % Weight Loss (d 17) [2, 8]: 0.9% | TGI ([2]; Colo-205, 5 and 10 mg/kg i.v. Q4Dx3, end of dosing): > 90% | TGI ([2]; Colo-205, alone 1.25 mg/kg i.v. Q4Dx3): 31% | TGI ([2]; Colo-205, alone 2.5 mg/kg i.v. Q4Dx3): 73% | response rate ([2]; Colo-205, alone 10 mg/kg): 80% | TGI ([2]; Colo-205, alone 10 mg/kg i.v. Q4Dx3): 96% | anti-tumor effect ([2]; Colo-205, lowest dose, 1 mg/kg): relatively ineffective | anti-tumor effects ([2]; Colo-205 human colo-rectal cancer xenograft model): anti-tumor effects were seen | effect in inhibiting growth [3]: minimal effect | cells affected by treatment in tumors ([4]; 5 mg/kg Q1Dx1, day 5): almost all cells | effect on cell mechanism in tumors ([4]; 1.25 and 5 mg/kg Q1Dx1, 4 hr samples): little effect | G2/M arrest, spindle and tubulin staining in tumors ([4]; 1.25 and 5 mg/kg Q1Dx1, day 1): increased numbers of cells were in G2/M arrest | cytotoxicity ([5]; MIAPaca2 (MN−)): not to MN-negative MIAPaca2 cells | killing of MN-negative cells ([5]; doses as high as 1 uM): Less than 10% | EC50 ([5]; read-out: Cytotoxicity: MN− (ec50), MN− cells): > 1000 nM
